Experimental data published in US9556148B2, “N-cyanomethylamides as inhibitors of janus kinase” (CADILA HEALTHCARE LIMITED, priority 2013, dated 2017).

Legend:
[1] = biological target: recombinant purified human JAK1 (Homo sapiens (Human), UniProt P23458); assay: in vitro JAK kinase assay on ADP Glo platform, JAK1; type: biochemical; settings: 50 μM ATP, 1 hr at room temperature
Procedure: (§1) NCEs were screened using in vitro JAK (1, 2 and 3) kinase assay on ADP Glo platform (Promega). Fixed amount of recombinant purified human JAK (25 ng of JAK1 and 10 ng of JAK2 and JAK3 per reaction, from Life Technologies Ltd) were incubated with increasing concentration of NCEs in 1× kinase reaction buffer (40 mM Tris-Cl, pH7.5, 20 mM MgCl2, 0.1 mg/ml BSA and 50 μM DTT). Enzymatic reaction was initiated by adding a substrate cocktail containing 50 μM of ATP (final concentration) and 5 μg for JAK1 and 2.5 μg for JAK2 and JAK3 of polyGln4Tyr1 (Signal Chem) in total 25 μl of reaction in 96 well plate. The reaction was incubated at room temperature for 1 hr.
(§2) After 1 hr of incubation equal volume (25 μl per reaction) of ADP Glo was added and incubated at room temperature for 40 min.
(§3) This was followed by addition of kinase detection reagent (50 μl per reaction) and incubation at room temperature for 30 min. Finally, plate was read for luminescence at an integration time of 500 millisecond per well.
(§4) Data were plotted taking Enzyme with no inhibitor set as the 100% kinase activity. IC50 values were calculated using Graph Pad Prism software.

[2] = biological target: recombinant purified human JAK3 (Homo sapiens (Human), UniProt P52333); assay: in vitro JAK kinase assay on ADP Glo platform, JAK3; type: biochemical; settings: 50 μM ATP, 1 hr at room temperature; read-out: JAK-3 IC50
recombinant purified human JAK3, sequence (P52333 whole entry): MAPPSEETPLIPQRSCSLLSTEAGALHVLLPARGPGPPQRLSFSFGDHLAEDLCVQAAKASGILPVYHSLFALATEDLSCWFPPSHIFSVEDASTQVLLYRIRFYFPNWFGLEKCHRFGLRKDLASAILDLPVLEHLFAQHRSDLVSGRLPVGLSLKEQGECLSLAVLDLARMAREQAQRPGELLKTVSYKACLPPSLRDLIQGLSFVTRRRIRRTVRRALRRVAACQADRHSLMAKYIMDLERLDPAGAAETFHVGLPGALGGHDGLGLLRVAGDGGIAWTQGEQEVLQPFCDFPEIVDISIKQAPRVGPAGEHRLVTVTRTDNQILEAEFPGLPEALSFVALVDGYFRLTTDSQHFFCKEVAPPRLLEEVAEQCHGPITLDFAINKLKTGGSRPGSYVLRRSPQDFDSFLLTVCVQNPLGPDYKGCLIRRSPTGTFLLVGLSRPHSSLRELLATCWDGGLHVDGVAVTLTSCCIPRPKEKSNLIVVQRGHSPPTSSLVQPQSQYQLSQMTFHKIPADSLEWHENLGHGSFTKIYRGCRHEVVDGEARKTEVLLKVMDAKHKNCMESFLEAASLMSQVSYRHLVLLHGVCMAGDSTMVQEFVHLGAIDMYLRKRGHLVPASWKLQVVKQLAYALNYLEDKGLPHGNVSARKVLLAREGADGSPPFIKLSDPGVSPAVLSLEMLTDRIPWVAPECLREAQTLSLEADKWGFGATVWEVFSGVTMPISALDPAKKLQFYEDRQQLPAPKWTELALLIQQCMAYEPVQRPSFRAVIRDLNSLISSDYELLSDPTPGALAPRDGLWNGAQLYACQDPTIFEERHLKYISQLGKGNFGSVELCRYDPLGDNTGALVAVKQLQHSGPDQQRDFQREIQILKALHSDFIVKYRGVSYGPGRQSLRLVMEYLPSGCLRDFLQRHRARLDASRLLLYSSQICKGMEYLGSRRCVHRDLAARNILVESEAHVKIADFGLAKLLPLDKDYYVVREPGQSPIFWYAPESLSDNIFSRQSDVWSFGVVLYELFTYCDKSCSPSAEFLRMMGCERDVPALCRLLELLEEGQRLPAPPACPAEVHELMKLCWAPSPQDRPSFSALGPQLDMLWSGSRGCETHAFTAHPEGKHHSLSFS
Procedure: as §1, §2, §3, §4

[3] = system: PGPS arthritis, PAW inflammation; assay: Peptidogylcan Polysaccharide Polymers (PGPS) arthritis; type: in vivo, Sprague dawley rats; settings: rats, values for day 16
Procedure: Female Sprague dawley rats were primed with an intra-articular injection of 20 μl of PGPS at 0.5 mg/ml of rhamnose in the right ankle. At 2 weeks the ankle diameters were measured with plethysmometer and rats assigned to groups of similar distribution of initial joint diameters. Rats then received their first dose of compound followed 1 h later by an i.v. injection of 0.5 ml of PGPS (0.5 mg/ml of rhamnose) in the tail vein. Compounds were dosed at 10 mg/kg and ankle diameters measured for 3 days [i.e. day 15, 16, 17]. Values are given for day 16.

[4] = biological target: recombinant purified human JAK2 (Homo sapiens (Human), UniProt O60674); assay: in vitro JAK kinase assay on ADP Glo platform, JAK2; type: biochemical; settings: 50 μM ATP, 1 hr at room temperature; read-out: JAK-2 IC50
recombinant purified human JAK2, sequence (O60674 whole entry): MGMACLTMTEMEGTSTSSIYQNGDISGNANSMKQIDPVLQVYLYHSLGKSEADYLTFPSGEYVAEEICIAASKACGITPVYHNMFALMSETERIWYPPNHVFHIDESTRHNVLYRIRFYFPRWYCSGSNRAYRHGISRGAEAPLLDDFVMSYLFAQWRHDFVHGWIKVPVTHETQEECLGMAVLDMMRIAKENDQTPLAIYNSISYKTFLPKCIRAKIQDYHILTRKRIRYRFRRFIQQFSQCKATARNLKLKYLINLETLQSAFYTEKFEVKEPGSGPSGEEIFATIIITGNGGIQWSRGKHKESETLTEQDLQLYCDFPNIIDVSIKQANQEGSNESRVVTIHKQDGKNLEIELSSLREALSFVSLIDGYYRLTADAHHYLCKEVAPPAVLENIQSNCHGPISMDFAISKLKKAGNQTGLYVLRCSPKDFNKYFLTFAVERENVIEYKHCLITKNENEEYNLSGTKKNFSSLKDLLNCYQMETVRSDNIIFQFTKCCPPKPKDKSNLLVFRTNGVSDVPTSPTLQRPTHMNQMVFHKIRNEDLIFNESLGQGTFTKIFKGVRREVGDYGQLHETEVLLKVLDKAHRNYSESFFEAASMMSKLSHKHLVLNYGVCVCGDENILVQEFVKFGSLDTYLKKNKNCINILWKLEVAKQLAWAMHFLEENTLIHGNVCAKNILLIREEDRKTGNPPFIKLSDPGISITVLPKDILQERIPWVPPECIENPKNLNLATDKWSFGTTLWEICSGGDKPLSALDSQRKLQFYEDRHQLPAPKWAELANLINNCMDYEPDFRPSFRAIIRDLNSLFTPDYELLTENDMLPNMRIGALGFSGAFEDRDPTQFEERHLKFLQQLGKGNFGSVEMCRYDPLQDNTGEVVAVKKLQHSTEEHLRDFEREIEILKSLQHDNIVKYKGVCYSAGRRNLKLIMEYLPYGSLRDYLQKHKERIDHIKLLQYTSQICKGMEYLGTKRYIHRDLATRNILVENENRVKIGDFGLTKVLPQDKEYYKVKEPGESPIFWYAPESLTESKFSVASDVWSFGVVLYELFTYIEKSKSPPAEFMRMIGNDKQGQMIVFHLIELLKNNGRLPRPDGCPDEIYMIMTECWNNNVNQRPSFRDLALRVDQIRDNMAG
Procedure: as §1, §2, §3, §4

[5] = biological target: JAK 2 (Homo sapiens (Human), UniProt O60674); settings: reported in WO 2008109943; read-out: reported in vitro JAK 2 inhibition; cited from earlier work
JAK 2, sequence (O60674 whole entry, species assumed): as the sequence (O60674 whole entry) above

[6] = biological target: JAK-3 (Homo sapiens (Human), UniProt P52333); settings: reported in WO 2008109943; read-out: reported in vitro JAK-3 inhibition; cited from earlier work
JAK-3, sequence (P52333 whole entry, species assumed): as the sequence (P52333 whole entry) above

recombinant purified human JAK1, sequence (P23458 whole entry): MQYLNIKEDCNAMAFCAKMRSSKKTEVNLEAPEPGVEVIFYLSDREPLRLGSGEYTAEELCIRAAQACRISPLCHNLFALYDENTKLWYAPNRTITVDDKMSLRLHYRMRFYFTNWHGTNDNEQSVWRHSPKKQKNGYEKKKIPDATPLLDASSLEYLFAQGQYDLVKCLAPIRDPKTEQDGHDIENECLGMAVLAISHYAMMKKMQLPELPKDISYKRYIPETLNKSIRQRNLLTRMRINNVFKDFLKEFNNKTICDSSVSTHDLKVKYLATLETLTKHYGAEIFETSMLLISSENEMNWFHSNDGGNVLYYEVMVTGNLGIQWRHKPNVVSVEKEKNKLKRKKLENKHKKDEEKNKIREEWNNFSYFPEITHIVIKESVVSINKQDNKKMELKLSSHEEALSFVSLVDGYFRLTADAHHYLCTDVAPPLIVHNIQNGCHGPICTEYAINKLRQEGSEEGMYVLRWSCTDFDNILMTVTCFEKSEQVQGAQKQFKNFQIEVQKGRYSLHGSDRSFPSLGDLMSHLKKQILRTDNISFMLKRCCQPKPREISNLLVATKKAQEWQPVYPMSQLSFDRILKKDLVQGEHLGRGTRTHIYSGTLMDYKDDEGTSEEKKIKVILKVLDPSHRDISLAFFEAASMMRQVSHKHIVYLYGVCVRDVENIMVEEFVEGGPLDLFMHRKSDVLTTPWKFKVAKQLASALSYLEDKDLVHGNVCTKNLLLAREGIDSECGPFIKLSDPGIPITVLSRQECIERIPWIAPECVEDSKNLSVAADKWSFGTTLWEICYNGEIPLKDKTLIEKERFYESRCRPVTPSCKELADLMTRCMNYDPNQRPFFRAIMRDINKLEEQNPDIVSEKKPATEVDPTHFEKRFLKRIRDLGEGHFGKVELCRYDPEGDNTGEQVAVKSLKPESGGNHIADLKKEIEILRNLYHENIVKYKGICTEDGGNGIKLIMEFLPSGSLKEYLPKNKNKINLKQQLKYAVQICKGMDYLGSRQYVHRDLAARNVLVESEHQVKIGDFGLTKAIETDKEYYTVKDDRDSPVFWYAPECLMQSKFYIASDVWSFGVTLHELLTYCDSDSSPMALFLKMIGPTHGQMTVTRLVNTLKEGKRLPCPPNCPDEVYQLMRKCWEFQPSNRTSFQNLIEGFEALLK

| Structure (SMILES) | IC50 [1] | IC50 [2] | IC50 [4] | % Reduction in PAW inflammation at dose 10 mg/Kg [3] | IC50 [5] | IC50 [6] |
| --- | --- | --- | --- | --- | --- | --- |
| N#CCNC(=O)c1ccc(-c2ccnc(Nc3ccc(N4CCC(N5CCOCC5)CC4)cc3)n2)cc1 [Example 3, N-(cyanomethyl)-4-(2-((4-(4-morpholinopiperidin-1-yl)phenyl)amino)pyrimidin-4-yl)benzamide] |  |  |  | 56% |  |  |
| N#CCNC(=O)c1ccc(-c2ccnc(Nc3ccc(N4CCC(N5CC6CC(C5)O6)CC4)cc3)n2)cc1 [Example 17, 4-(2-((4-(4-(6-oxa-3-azabicyclo[3.1.1]heptan-3-yl)piperidin-1-yl)phenyl)amino)pyrimidin-4-yl)-N-(cyanomethyl)benzamide] | 13 nM | 69 nM | 8 nM | 57% |  |  |
| Cc1nnc(C2CCN(c3ccc(Nc4nccc(-c5ccc(C(=O)NCC#N)cc5)n4)cc3)CC2)o1 [Example 25, N-(cyanomethyl)-4-(2-((4-(4-(5-methyl-1,3,4-oxadiazol-2-yl)piperidin-1-yl)phenyl)amino)pyrimidin-4-yl)benzamide] | 12 nM |  |  | 63% |  |  |
| N#CCNC(=O)c1ccc(-c2ccnc(Nc3ccc(N4CCC(c5n[nH]c(=O)o5)CC4)cc3)n2)cc1 [Example 29, N-(cyanomethyl)-4-(2-((4-(4-(5-oxo-4,5-dihydro-1,3,4-oxadiazol-2-yl)piperidin-1-yl)phenyl)amino)pyrimidin-4-yl)benzamide] | 15 nM | 56 nM | 21 nM | 43% |  |  |
| N#CCNC(=O)c1ccc(-c2ccnc(Nc3ccc(ON4CCC(N5CCCC5)CC4)cc3)n2)cc1 [compounds 2] |  |  |  |  | < 1000 nM | < 20000 nM |

Second part, led by results:

| IC50 [1] | IC50 [2] | IC50 [4] | Structure (SMILES) | % Reduction in PAW inflammation at dose 10 mg/Kg [3] | IC50 [5] | IC50 [6] |
| --- | --- | --- | --- | --- | --- | --- |
| 12.1 nM | 72 nM |  | N#CCNC(=O)c1ccc(-c2ccnc(Nc3ccc(N4CCC(N5CCCC5=O)CC4)cc3)n2)cc1 [Example 1, N-(cyanomethyl)-4-(2-((4-(4-(2-oxopyrrolidin-1-yl)piperidin-1-yl)phenyl)amino)pyrimidin-4-yl)benzamide] | 51% |  |  |
| 21 nM | 66 nM | 17 nM | N#CCNC(=O)c1ccc(-c2ccnc(Nc3ccc(N4CCC(n5cncn5)CC4)cc3)n2)cc1 [Example 4, 4-(2-((4-(4-(1H-1,2,4-triazol-1-yl)piperidin-1-yl)phenyl)amino)pyrimidin-4-yl)-N-(cyanomethyl)benzamide] | 52% |  |  |
| 5 nM | 23 nM | 5 nM | N#CCNC(=O)c1ccc(-c2ccnc(Nc3ccc(N4CCC(N5CCC6(CCCO6)CC5)CC4)cc3)n2)cc1 [Example 24, 4-(2-((4-(4-(1-oxa-8-azaspiro[4.5]decan-8-yl)piperidin-1-yl)phenyl)amino)pyrimidin-4-yl)-N-(cyanomethyl)benzamide] | 41% |  |  |
